Reference: ChEMBL document CHEMBL1153875, “Synthesis of new dipyrrolo- and furopyrrolopyrazinones related to tripentones and their biological evaluation as potential kinases (CDKs1-5, GSK-3) inhibitors” (Eur J Med Chem, 2009)
pIC50: −log10 of the molar value.

Key:
[1] = target: Cyclin-dependent kinase 5 (Homo sapiens, UniProt Q00535); assay: Inhibition of CDK5
[2] = target: Glycogen synthase kinase-3 beta (Homo sapiens, UniProt P49841); assay: Inhibition of GSK3-beta
[3] = target: Cyclin-dependent kinase 1/cyclin B1 (Homo sapiens, UniProt P06493); assay: Inhibition of CDK1/cyclin B; type: protein-complex assay
[4] = Inhibition of tubulin polymerization

Chain of Cyclin-dependent kinase 1/cyclin B1 (P06493 whole entry): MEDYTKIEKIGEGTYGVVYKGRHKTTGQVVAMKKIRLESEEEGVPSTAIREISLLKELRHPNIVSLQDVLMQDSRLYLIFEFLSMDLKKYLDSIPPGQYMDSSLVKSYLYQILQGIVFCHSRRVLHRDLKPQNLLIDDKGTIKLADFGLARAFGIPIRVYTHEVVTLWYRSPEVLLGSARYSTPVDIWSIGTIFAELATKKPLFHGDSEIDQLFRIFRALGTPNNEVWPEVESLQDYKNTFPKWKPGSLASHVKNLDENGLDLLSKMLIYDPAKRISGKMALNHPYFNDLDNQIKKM
Chain of Cyclin-dependent kinase 1/cyclin B1 (P14635 whole entry, further chain): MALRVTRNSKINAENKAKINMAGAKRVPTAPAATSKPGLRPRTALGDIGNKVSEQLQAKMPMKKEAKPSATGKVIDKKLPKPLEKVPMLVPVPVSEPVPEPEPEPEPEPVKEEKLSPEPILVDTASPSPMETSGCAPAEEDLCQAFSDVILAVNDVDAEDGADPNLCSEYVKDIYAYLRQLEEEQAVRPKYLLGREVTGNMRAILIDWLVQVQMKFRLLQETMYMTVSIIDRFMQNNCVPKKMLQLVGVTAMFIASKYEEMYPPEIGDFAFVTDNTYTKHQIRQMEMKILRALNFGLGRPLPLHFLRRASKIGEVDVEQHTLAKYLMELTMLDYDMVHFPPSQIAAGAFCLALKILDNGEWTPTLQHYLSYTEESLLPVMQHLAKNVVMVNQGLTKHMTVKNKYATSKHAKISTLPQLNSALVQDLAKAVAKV
Chain of Glycogen synthase kinase-3 beta (P49841 whole entry): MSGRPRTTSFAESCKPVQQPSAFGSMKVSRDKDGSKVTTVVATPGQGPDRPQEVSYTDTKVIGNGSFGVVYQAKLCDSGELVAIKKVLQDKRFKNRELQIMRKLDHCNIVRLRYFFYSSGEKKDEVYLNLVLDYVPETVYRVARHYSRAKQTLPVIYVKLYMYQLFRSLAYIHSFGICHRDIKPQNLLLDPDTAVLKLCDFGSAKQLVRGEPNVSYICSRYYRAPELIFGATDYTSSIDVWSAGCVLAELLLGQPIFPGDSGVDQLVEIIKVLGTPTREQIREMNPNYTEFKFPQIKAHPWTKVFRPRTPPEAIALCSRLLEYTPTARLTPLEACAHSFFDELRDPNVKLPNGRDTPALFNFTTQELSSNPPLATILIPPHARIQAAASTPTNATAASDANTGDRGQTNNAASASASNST
Chain of Cyclin-dependent kinase 5 (Q00535 whole entry): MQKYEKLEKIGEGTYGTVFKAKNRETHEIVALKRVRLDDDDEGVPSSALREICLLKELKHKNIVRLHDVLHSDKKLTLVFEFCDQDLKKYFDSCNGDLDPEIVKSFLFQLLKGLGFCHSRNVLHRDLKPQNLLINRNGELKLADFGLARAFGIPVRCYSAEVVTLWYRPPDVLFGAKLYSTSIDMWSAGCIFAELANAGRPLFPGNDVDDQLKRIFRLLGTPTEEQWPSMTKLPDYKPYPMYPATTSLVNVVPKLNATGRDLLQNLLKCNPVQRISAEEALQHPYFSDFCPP

Row | pIC50 [1] | pIC50 [2] | pIC50 [3] | pIC50 [4] | Compound
1 | < 4.30 | < 4.30 | < 4.30 | – | O=C1c2[nH]cc(-c3ccc(Cl)cc3)c2-n2cccc21
2 | < 4.30 | < 4.30 | < 4.30 | – | COc1ccc(-c2c[nH]c3c2-n2cccc2C3=O)cc1OCc1ccccc1
3 | < 4.30 | < 4.30 | – | – | COc1ccc(-c2c[nH]c3[nH]c(=O)c4cccn4c23)cc1OC
4 | < 4.30 | < 4.30 | – | – | COc1ccc(-c2coc3[nH]c(=O)c4cccn4c23)cc1OC
5 | < 4.30 | < 4.30 | – | – | O=c1[nH]c2[nH]cc(-c3ccc(Cl)cc3)c2n2cccc12
6 | 4.52 | 4.96 | 4.66 | – | COc1ccc(-c2c[nH]c3c2-n2cccc2C3=O)cc1O
7 | < 4.30 | < 4.30 | – | – | COc1ccc(-c2c[nH]c3c2-n2cccc2C3=O)cc1OC
8 | < 4.30 | < 4.30 | – | – | O=c1[nH]c2occ(-c3ccc(F)cc3)c2n2cccc12
9 | < 4.30 | < 4.30 | – | – | Cc1ccc(-c2coc3[nH]c(=O)c4cccn4c23)cc1
10 | < 4.30 | < 4.30 | – | – | O=c1[nH]c2occ(-c3ccc(Cl)c(Cl)c3)c2n2cccc12
11 | – | < 4.30 | < 4.30 | – | COc1ccc(-c2csc3c2-n2cccc2C3=O)cc1OCc1ccccc1
12 | 4.85 | 4.77 | 5.05 | – | COc1ccc(-c2c[nH]c3c2-n2cccc2/C3=N/O)cc1OCc1ccccc1
13 | < 4.30 | < 4.30 | – | – | O=c1[nH]c2occ(-c3ccc(Br)cc3)c2n2cccc12
14 | < 4.30 | < 4.30 | – | – | COc1ccc(-c2coc3[nH]c(=O)c4cccn4c23)cc1
15 | 5.49 | 5.26 | 5.42 | – | COc1ccc(-c2c[nH]c3c2-n2cccc2/C3=N/O)cc1O
16 | < 4.30 | < 4.30 | < 4.30 | – | COc1ccc(-c2coc3c2-n2cccc2C3=O)cc1OC
17 | – | – | 5.26 | 5.54 | COc1ccc(-c2csc3c2-n2cccc2C3=O)cc1O
